Measured values as given in the OPERA property sets (Mansouri et al. 2018).

| logP | SMILES |
| --- | --- |
| 1.98 | O=C1NC(=O)C(Cc2ccccc2)S1 (configuration not stated) |
| 1.47 | O=C1CC(=O)C(c2ccccc2)O1 (configuration not stated) |
| 0.6 | O=C1NC(=O)C(Cc2ccccc2)N1 (configuration not stated) |
| 1.19 | O=C1NC(=O)N(Cc2ccccc2)C1=O |
| 0.31 | NS(=O)(=O)NC(=O)Cc1ccccc1 |
| 0.04 | O=C1CNC(=O)N1c1ccccc1 |
| 0.54 | O=C1CC(=O)N(c2ccccc2)O1 |
| 2.26 | O=C1NC(=O)C(c2ccccc2)C1=O (configuration not stated) |
| 0.83 | O=C1CN(c2ccccc2)C(=O)N1 |
| 1.09 | O=C1NC(=O)C(c2ccccc2)O1 (configuration not stated) |
| 0.76 | O=C1CN(Cc2ccccc2)C(=O)N1 |
| 0.24 | NC(=O)NS(=O)(=O)Cc1ccccc1 |
| 1.2 | O=C1NC(=O)C(Cc2ccccc2)O1 (configuration not stated) |
| 0.76 | O=C1CC(=O)N(Cc2ccccc2)C1 |
| 1.74 | O=c1[nH]c(=O)n(-c2ccccc2)o1 |
| 0.48 | O=C1CC(=O)C(c2ccccc2)N1 (configuration not stated) |
| 0.6 | O=C1NC(=O)N(c2ccccc2)C1=O |
